Measured values: patent publication US20160009752A1, “[…]-OXIMINO-AMINOALKYLETHERS AND PROCESS FOR PREPARATION THEREOF, USEFUL AS ANTIDIABETIC AND […] AGENTS” (COUNCIL OF SCIENTIFIC & INDUSTRIAL RESEARCH, priority 2013, published 2016)

System: Triton-induced hyperlipidemic rat model
Test: Antidyslipidaemic activity in Triton-induced hyperlipidemic rat model
Assay type: in vivo
Conditions: summary of Tables 1-2
Protocol: Male charles foster rats weighing around 200 to 225 g were divided into control, dyslipidemic and dyslipidemic plus drug treated groups containing six animals in each group. Dyslipidemia was induced by administration of triton WR-1339 (200 mg/kg intraperitoneally). All animals were maintained on a special pellet diet and water ad libitum. Test compounds and standard drug (Gemfibrozil) were macerated in 0.2% aqueous gum acacia. The fine suspension of test compounds and standard drug were fed orally to the respective groups at the dose of 100 mg/kg simultaneously with triton WR-1339 in drug treated group. The animals of control group received the same amount of gum acacia by similar route of administration. […]
Total plasma cholesterol was estimated using the kit and instructions as provided by the manufacturer Roche Diagnostics. […] The hydrogen peroxide combines with hydroxybenzoic acid (HBA) and 4-aminoantipyrine (4-AAA) in the presence of peroxidase (POD) to form a red chromophore (quinoneimine) which is quantitated at 500-505 nm. […]
Total plasma triglycerides were estimated using the kit and instructions as provided by the manufacture i.e. Roche Diagnostics. […] In the presence of peroxidase, hydrogen peroxide oxidatively couples with 4-aminoantipyrine and 4-chlorophenol to produce red chromophore quinonimine which is quantitated at 500-505 nm. […]

Row | Structure (SMILES) | antidyslipidemic / antidiabetic activity, summary in words
1 | C/C(=N/OCc1ccccc1)C1=CC[C@H]2[C@@H]3CC=C4C[C@@H](O)CC[C@]4(C)[C@H]3CC[C@]12C [Compound 10b, 3β-Hydroxy-pregna-5,16-dien-20-one-O-benzyl-oxime] | mainly antidyslipidemic activity
2 | CCCCO/N=C(/C)C1=CC[C@H]2[C@@H]3CC=C4C[C@@H](O)CC[C@]4(C)[C@H]3CC[C@]12C [Compound 10a, 3β-Hydroxy-pregna-5,16-dien-20-one-O-n-butyl-oxime] | mainly antidyslipidemic activity
